Laboratory results published in paper PMC7351850 (European Journal of Clinical Pharmacology, 2020).

Columns and labels:
[1] = metformin 750 mg single dose alone, fed, n=24
Experimental: (§5) Subjects were admitted to hospital on Day 1 and were discharged on Day 12. […] On Day 3 and Days 5–11, subjects received peficitinib 150 mg (150 mg × 1 tablet), once daily. Subjects returned for an end-of-study examination on Day 15 ± 2.
(§6) The planned sample size was 24 subjects, based on the precedent set by other PK studies of a similar nature [21, 22]. The safety analysis set (SAF) consisted of all subjects who received at least one dose of study drug. The PK analysis set (PKAS) consisted of subjects who received the study drug and provided at least one estimable PK parameter. Plasma PK parameters were calculated by non-compartmental analysis using Phoenix(R) WinNonlin(R) software, version 6.2 (Certara USA, Inc., Princeton, NJ, USA). Baseline demographic and other characteristics, vital signs, clinical laboratory findings, 12-lead ECG results and TEAEs were summarised for the SAF using descriptive statistics.
(§7) Statistical analyses were performed using SAS(R) software, version 9.4 (SAS Institute Inc., Cary, NC, USA). […] The least-square (LS) geometric mean ratio (GMR) and its 90% confidence interval (CI) were calculated using the exponential-transformed LS geometric mean difference and CI. Missing data were not imputed or used for analyses.

clinical = settings: male, human, plasma, po, 750 mg, metformin 750 mg single dose alone, fed, n=24; for AUC(0-inf): Plasma AUCinf of metformin; for Cmax: Plasma Cmax of metformin
Experimental: as §5, §6, §7

OCT1 = biological target: T1, OCT1 (Homo sapiens, UniProt O15245); test: Inhibition of [14C]metformin uptake into OCT1-expressing HEK293 cells; format: cell-based
T1 construct: containing full-length human transporter cDNA; host or cells: HEK293
T1 sequence (O15245 1-554): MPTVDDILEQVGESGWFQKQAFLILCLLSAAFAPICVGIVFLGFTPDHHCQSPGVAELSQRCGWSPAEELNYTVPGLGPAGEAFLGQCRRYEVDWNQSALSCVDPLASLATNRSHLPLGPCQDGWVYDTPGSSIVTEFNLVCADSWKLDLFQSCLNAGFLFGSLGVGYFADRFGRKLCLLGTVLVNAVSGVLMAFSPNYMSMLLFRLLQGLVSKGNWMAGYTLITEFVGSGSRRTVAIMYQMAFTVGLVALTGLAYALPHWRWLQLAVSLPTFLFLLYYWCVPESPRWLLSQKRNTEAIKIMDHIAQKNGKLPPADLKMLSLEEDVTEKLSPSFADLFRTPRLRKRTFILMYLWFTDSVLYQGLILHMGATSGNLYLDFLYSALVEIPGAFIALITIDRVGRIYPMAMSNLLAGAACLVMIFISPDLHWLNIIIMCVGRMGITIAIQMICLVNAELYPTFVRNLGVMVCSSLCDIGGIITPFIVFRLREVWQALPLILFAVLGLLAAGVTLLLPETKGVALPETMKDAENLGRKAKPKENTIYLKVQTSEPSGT
Source text: (§1) Human embryonic kidney (HEK293) cells expressing OCT1, OCT2, MATE1 and MATE2-K were established at the ADME & Tox. Research Institute (Sekisui Medical Co., Ltd, Ibaraki, Japan) by transfection of a pcDNA vector (Invitrogen, Carlsbad, CA, USA) containing full-length human transporter cDNA. Control HEK293 cells were established by transfection of the empty vector. The expression level of transporter mRNA in transfected cells was verified periodically by real-time polymerase chain reaction. […] The cells were maintained at 37 °C with 5% CO2 in DMEM containing 10% FBS with antibiotic-antimycotics and L-glutamine.
(§2) Assays were performed in triplicate. […]
(§3) After incubation, the test solution was removed, and the cells were washed once with ice-cold 0.2% bovine serum albumin in phosphate-buffered saline (PBS) and twice with 1 mL of ice-cold PBS. […] After the cell lysate was mixed by pipetting, 0.3 mL (OCT1, OCT2, and MATE1) or 0.5 mL (MATE2-K) of the lysate was collected into a glass vial and mixed with 10 mL of the scintillator Hionic-fluor (PerkinElmer, Inc., Waltham, MA, USA) to measure the radioactivity using a liquid scintillation counter (2500TR [PerkinElmer, Inc.]).
(§4) Protein content was measured using the BCA Protein Assay Kit (Thermo Fisher Scientific, Inc., Waltham, MA, USA, or Pierce, Rockford, IL, USA) in accordance with the manufacture’s recommendations. […]

OCT2 = biological target: T2, OCT2 (Homo sapiens, UniProt O15244); test: Inhibition of [14C]metformin uptake into OCT2-expressing HEK293 cells; format: cell-based
T2 construct: containing full-length human transporter cDNA; host or cells: HEK293
T2 sequence (O15244 1-555): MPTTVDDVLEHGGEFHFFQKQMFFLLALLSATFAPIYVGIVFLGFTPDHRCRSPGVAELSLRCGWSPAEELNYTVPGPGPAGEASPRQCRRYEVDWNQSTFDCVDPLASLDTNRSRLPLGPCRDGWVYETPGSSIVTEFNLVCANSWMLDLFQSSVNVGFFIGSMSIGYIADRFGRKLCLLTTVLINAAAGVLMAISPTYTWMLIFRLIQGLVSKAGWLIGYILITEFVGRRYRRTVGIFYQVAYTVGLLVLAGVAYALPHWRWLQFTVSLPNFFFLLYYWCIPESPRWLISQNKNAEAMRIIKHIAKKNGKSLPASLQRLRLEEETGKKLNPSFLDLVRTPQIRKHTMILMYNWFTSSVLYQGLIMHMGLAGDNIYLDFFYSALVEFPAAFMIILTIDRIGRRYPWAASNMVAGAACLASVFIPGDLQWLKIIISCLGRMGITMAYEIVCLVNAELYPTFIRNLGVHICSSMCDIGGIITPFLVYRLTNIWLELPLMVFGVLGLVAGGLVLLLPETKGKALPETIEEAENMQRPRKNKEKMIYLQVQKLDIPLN
Source text: as §1, §2, §3, §4

[2] = cited from earlier work
MATE1 = biological target: T3, MATE1 (Homo sapiens, UniProt Q96FL8); test: Inhibition of [14C]metformin uptake into MATE1-expressing HEK293 cells; format: cell-based
T3 construct: containing full-length human transporter cDNA; host or cells: HEK293
T3 sequence (Q96FL8 1-570): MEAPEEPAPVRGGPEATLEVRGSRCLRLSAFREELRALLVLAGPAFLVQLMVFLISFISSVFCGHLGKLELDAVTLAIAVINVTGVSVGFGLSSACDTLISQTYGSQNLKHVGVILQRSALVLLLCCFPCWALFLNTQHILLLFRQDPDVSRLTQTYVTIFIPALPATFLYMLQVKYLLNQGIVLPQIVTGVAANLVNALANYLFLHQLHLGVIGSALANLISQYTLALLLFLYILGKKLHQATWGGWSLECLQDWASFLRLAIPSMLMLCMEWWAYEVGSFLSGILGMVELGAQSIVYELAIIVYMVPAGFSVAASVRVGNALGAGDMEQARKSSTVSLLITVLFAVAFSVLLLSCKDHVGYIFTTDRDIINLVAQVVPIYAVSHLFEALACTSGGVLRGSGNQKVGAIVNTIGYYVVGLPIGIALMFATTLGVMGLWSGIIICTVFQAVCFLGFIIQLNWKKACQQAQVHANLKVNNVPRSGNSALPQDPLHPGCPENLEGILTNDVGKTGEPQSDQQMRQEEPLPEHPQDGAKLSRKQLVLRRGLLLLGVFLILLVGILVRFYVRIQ
Source text: as §1, §2, §3, §4

[3] = design: method as in earlier work; settings: cited from earlier work
[4] = Clinical drug-drug interaction study: safety (treatment-emergent adverse events); format: in vivo, healthy male subjects
Experimental: Safety assessments were undertaken from screening through to the final study assessment. Safety was assessed by the monitoring of adverse events, vital signs (supine blood pressure, supine pulse and axillary temperature), clinical laboratory tests (haematology, biochemistry and urinalysis) and 12-lead electrocardiograms (ECGs).
TEAEs were graded using the National Cancer Institute’s Common Terminology Criteria for Adverse Events (NCI CTCAE) guidelines (version 4.0).

MATE2-K = biological target: T4, MATE2-K (Homo sapiens, UniProt Q86VL8); test: Inhibition of [14C]metformin uptake into MATE2-K-expressing HEK293 cells; format: cell-based
T4 construct: containing full-length human transporter cDNA; expressed in transfected cells; host or cells: HEK293 (transient transfection)
Source text: as §1, §2, §3, §4

[5] = Earlier clinical pharmacokinetic and mass balance studies of peficitinib; format: in vivo, healthy subjects; settings: single oral dose of 150 mg, fasted; calculated from 524.5 ng/mL assuming 72.83% protein bound
[6] = single oral dose of [14C]peficitinib, six healthy male subjects

T4 sequence (Q86VL8 1-566 isoform Q86VL8-3): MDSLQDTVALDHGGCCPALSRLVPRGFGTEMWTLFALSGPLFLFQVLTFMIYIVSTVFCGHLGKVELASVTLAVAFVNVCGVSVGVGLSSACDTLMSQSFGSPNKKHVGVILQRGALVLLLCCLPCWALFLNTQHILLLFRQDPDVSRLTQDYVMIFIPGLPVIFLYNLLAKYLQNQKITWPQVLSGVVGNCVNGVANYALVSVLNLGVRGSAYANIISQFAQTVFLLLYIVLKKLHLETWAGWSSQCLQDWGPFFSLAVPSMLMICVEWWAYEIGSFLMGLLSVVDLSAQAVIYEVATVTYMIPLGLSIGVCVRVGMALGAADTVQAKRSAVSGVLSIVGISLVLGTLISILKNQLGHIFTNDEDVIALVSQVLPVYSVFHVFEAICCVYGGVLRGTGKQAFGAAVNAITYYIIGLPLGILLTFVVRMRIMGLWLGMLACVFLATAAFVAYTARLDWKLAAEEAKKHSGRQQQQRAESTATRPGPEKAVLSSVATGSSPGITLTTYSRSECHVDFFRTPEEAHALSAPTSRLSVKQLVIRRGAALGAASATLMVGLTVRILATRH

CN(C)C(=N)N=C(N)N [Metformin]
CL/F of metformin, mean (SD) [1]: 83.6 (12.5) L/h
CL/F of metformin, median [1]: 82.9 L/h
CL/F of metformin, min-max [1]: 60.2 to 110 L/h
Plasma AUClast of metformin, mean (SD) [1]: 9050 (1410) ng∙h/mL
Plasma AUClast of metformin, median [1]: 8990 ng·h/mL
Urine Aelast% of metformin, mean (SD) [1]: 38.6 (3.77) %
Urine Aelast% of metformin, median [1]: 37.7%
Urine Aelast% of metformin, min-max [1]: 33.0–49.8%
tmax of metformin, median [1]: 3.00 h
AUC(0-inf) (clinical; median): 9050 ng·h/mL
AUC(0-inf) (clinical; min-max): 6820 to 12500 ng·h/mL
Cmax (clinical; mean (SD)): 1380 ng/mL
Cmax (clinical; median): 1380 ng/mL
Cmax (clinical; min-max): 973 to 2030 ng/mL

NC(=O)c1cnc2[nH]ccc2c1N[C@@H]1[C@@H]2CC3C[C@H]1C[C@@](O)(C3)C2 [Peficitinib]
IC50 (OCT1): 0.247 µM
IC50 (OCT2): 71.4 µM
Urinary excretion, share of an oral dose ([2]; single and multiple doses, healthy subjects, two Phase I trials): 9–15%
Cmax of peficitinib ([2]; single oral dose of 150 mg, fasted conditions): 524.5 ng/mL
Share of the peficitinib dose absorbed ([2]; single oral dose of [14C]peficitinib, six healthy male subjects, assuming stability in the gastrointestinal tract): approximately 64%
Mean faecal excretion as unchanged peficitinib, share of administered dose [2, 6]: 29.8%
Mean recovery in faeces [2, 6]: 56.6%
Mean recovery in urine [2, 6]: 36.8%
IC50 (MATE1): 10 µM
Protein bound [3]: 72.83%
Tolerability ([4]; peficitinib 150 mg, metformin 750 mg, no serious TEAEs or TEAEs leading to treatment withdrawal): generally well tolerated
Subjects with TEAEs ([4]; peficitinib alone phase, 150 mg once daily, 3/24 subjects, four mild (Grade 1) TEAEs, all considered drug related): 12.5%
Increased aspartate aminotransferase, subjects ([4]; peficitinib alone phase, 1/24): 4.2%
Soft faeces, subjects ([4]; peficitinib alone phase, 1/24): 4.2%
Increased alanine aminotransferase, subjects ([4]; peficitinib alone phase, 2/24): 8.3%
IC50 (MATE2-K): 20.8 µM
Cmax of unbound peficitinib [5]: 440 nM

CN/C(=N/CCSCc1nc[nH]c1C)NC#N [cimetidine, reference compound]
[14C]metformin uptake into MATE1-expressing cells, % of uptake in the absence of inhibitors (MATE1; typical inhibitor, cimetidine 10 μmol/L): 11.9–14.7%
[14C]metformin uptake into MATE2-K-expressing cells, % of uptake in the absence of inhibitors (MATE2-K; typical inhibitor, cimetidine 100 μmol/L): 8.2–15.1%
